Assay results: article PMC10382584, “Macrocyclization of linear molecules by deep learning to facilitate macrocyclic drug candidates discovery” (Nature Communications, 2023)
Where “and” joins values, the source holds several entries; their conditions need not be identical. Identical values can stand only once. Like-named read-outs stand apart in the source and are kept apart here.

Legend:
HEL cells = experiment: Cell proliferation assay (CCK-8), HEL cells; type: cell-based, human
Experimental: (§1) The human erythroid leukemia (HEL 92.1.7) cells were purchased from the American Type Culture Collection (ATCC, TIB-180), and the human megakaryoblastic (SET2) cells were obtained from German Collection of Microorganisms and Cell Cultures (DSMZ, ACC 608). The anti-proliferative activities of compounds were evaluated using WST-8 cell counting kit-8 (Elabscience). HEL and SET-2 cells were seeded at 5000 cells/well in 70 μL RPMI-1640 medium (Hyclon) with 10% FBS (Gibco) to the 96-well plate and incubated overnight at 37 °C with 5% CO2. The compounds were serially diluted in RPMI-1640 medium, and cells were treated separately with 30 μL various concentrations of compounds for 72 h. The final DMSO concentration in the culture wells was 0.1%, which had no effect on the cell viability. Finally, 10 μL of CCK-8 solution was added into the wells. 4 h later, the absorbance values at 450 nm were recorded. IC50 values were determined using GraphPad Prism v8.3.0, and three parallel experiments were performed.

SET-2 cells = experiment: Cell proliferation assay (CCK-8), SET-2 cells; type: cell-based, human; conditions: for Inhibition (%): single wells of replicate 1 and replicate 2
Experimental: as §1

[1] = Chemical stability in DMSO stock solution (HPLC purity); type: physicochemical; conditions: mean±SD
Excerpt: compounds were formulated in the solubilizing vehicle (5% DMSO/30% PEG400/65% […]
safety to the mice in the test.
6. What was the sample dissolved in for the in vitro and in vivo experiments? Response: The solvent information for the in vitro and in vivo experiments has been added in the revised manuscript. […]
7. Was the stability of the different compounds assessed and compared to Fedratinib? This is generally a critical point in macrocyclic studies. […]
in DMSO stock solution. Test compounds were incubated at room temperature and 60 ℃, respectively, for 72 h, and their purities (%) were determined using HPLC equipped with a CORTECS C18 column (4.6*50 mm, 2.7 μm particle size) and a UV/VIS detector setting of λ=210 nm. All co mpounds were eluted with the two solvent systems ([…] as organic phase in Method I and CH3OH as organic phase in Method II) at a flow rate of 0.3 ml/min. Each experiment repeated for three times and the results are represented as mean±SD.
Ta b e l R 1 . Comparison of chemical stability of different compounds at room temperature and 60 ℃, respectively.

In vivo PK study in mice = conditions: male, BALB/c, mouse, plasma, 5 mg/kg
Experimental: The mice were separately administered to a group of three mice per time point for intravenous (5 mg/kg) or oral administration (5 mg/kg). […] Then the samples were separated by centrifugation and analyzed by LC-MS/MS (XEVO TQ-S) to determine the plasma drug concentrations. The PK parameters were calculated using the noncompartment model with Phoenix WinNonLin v8.0. The animal experimental procedures were approved by the Medicine Research Ethics Committee of Hangzhou Leading Pharmatech Co., Ltd.
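For Cmax in this document: mice dosed intravenously or orally, three animals per time point, plasma drug levels quantified by LC-MS/MS, PK parameters derived by noncompartmental analysis in Phoenix WinNonLin.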
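For Tmax in this document: mice dosed intravenously or orally, three animals per time point, plasma drug levels quantified by LC-MS/MS, PK parameters derived by noncompartmental analysis in Phoenix WinNonLin.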

SMILES: Cc1cnc(Nc2ccc(OCCN3CCCC3)cc2)nc1Nc1cccc(S(=O)(=O)NC(C)(C)C)c1 [Fedratinib]
- Inhibition (%) (HEL cells; HEL cell lines, 0.0977 μM, single wells, replicates 1 and 2): 3.834% and 2.092% and -5.316% and -2.068% and -2.146% and 0.251%
- Inhibition (%) (HEL cells; HEL cell lines, 0.1953 μM, single wells, replicates 1 and 2): 5.577% and 4.096% and -7.320% and -6.244% and 7.056% and 1.643%
- Inhibition (%) (HEL cells; HEL cell lines, 0.3906 μM, single wells, replicates 1 and 2): 16.296% and 7.233% and 2.004% and -5.316% and 4.195% and -1.991%
- Inhibition (%) (HEL cells; HEL cell lines, 0.7813 μM, single wells, replicates 1 and 2): 26.492% and 16.296% and 14.205% and 10.690% and 13.319% and 1.875%
- Inhibition (%) (HEL cells; HEL cell lines, 1.5625 μM, single wells, replicates 1 and 2): 66.754% and 58.911% and 59.608% and 37.908% and 40.692% and 44.790%
- Inhibition (%) (HEL cells; HEL cell lines, 3.1250 μM, single wells, replicates 1 and 2, 3.125 µM): 88.628% and 87.669% and 91.881% and 90.412% and 89.871%
- Inhibition (%) (HEL cells; HEL cell lines, 6.2500 μM, single wells, replicates 1 and 2, 6.25 µM): 90.893% and 89.499% and 94.355% and 93.737% and 94.510%
- Inhibition (%) (HEL cells; HEL cell lines, 12.5000 μM, single wells, replicates 1 and 2, 12.5 µM): 91.590% and 91.503% and 95.902% (2×) and 96.056%
- IC50 (HEL cells; HEL cell lines, single-replicate fits, read-out: IC50/μM (individual replicates), cellular antiproliferative activity): 1.38 µM
- IC50 (HEL cells; Homo sapiens, HEL, 72 h, HEL cells, 72 h, mean ± SD, read-out: Cellular Antiproliferative Activity (IC50) HEL): 1.34 ± 0.06 µM
- inhibition at 3.125 µM (HEL cells; Homo sapiens, HEL, HEL cell lines, 3.1250 μM, single wells, replicates 1 and 2): 90.5%
- inhibition at 6.25 µM (HEL cells; Homo sapiens, HEL, HEL cell lines, 6.2500 μM, single wells, replicates 1 and 2): 92.1%
- inhibition at 12.5 µM (HEL cells; Homo sapiens, HEL, HEL cell lines, 12.5000 μM, single wells, replicates 1 and 2): 93.2%
- inhibition at 25 µM (HEL cells; Homo sapiens, HEL, HEL cell lines, […], single wells, replicates 1 and 2): 94.5%
- IC50 (HEL cells; Homo sapiens, HEL, HEL cell lines, mean of 2 replicates, read-out: IC50/μM mean, cellular antiproliferative activity): 1.34 µM
- IC50 (HEL cells; Homo sapiens, HEL, HEL cell lines, mean ± sd of 2 replicates, read-out: IC50/μM mean ± sd, cellular antiproliferative activity): 1.34 ± 0.06 µM
- IC50 (HEL cells; Homo sapiens, HEL, HEL cell lines, single-replicate fits, read-out: IC50/μM (individual replicates), cellular antiproliferative activity): 1.29 µM
- IC50 (SET-2 cells; Homo sapiens, SET-2, 72 h, SET-2 cells, 72 h, mean ± SD, read-out: Cellular Antiproliferative Activity (IC50) SET-2): 1.12 ± 0.08 µM
- IC50 (SET-2 cells; Homo sapiens, SET-2, SET-2 cell lines, mean of two replicates, read-out: IC50/μM mean): 1.12 µM
- IC50 (SET-2 cells; Homo sapiens, SET-2, SET-2 cell lines, mean ± sd of two replicates, read-out: IC50/μM mean ± sd): 1.12 ± 0.08 µM
- IC50 (SET-2 cells; Homo sapiens, SET-2, SET-2 cell lines, value of each single replicate, read-out: IC50/μM): 1.07 µM
- Inhibition (%) (SET-2 cells; SET-2 cell lines, C 0.0977 μM): 12.0389% and 5.1759% and -0.6577% and 17.763% and 22.009% and 18.591%
- Inhibition (%) (SET-2 cells; SET-2 cell lines, C 0.1953 μM): 22.4478% and 11.8101% and 6.6629% and 13.309% and 23.874% and 25.324%
- Inhibition (%) (SET-2 cells; SET-2 cell lines, C 0.3906 μM): 33.6574% and 13.6403% and 14.6697% and 30.399% and 33.402% and 33.506%
- Inhibition (%) (SET-2 cells; SET-2 cell lines, C 0.7813 μM): 33.8862% and 39.7198% and 32.9711% and 35.163% and 37.960% and 48.110%
- Inhibition (%) (SET-2 cells; SET-2 cell lines, C 1.5625 μM): 69.3452% and 65.5705% and 67.2862% and 30.399% and 43.553% and 55.671%
- Inhibition (%) (SET-2 cells; SET-2 cell lines, C 3.1250 μM): 88.2185% and 85.2445% and 86.3883% and 75.039% and 80.010% and 81.357%
- Inhibition (%) (SET-2 cells; SET-2 cell lines, C 6.2500 μM): 86.3883% and 85.8164% and 88.9048% and 71.725% and 72.139% and 76.385%
- Inhibition (%) (SET-2 cells; SET-2 cell lines, C 12.5000 μM): 97.7123% and 97.3692% (2×) and 89.643% (2×) and 91.093%
- IC50 (SET-2 cells; SET-2 cell lines, value of each single replicate, read-out: IC50/μM): 1.16 µM
- purity after incubation in DMSO stock solution ([1]; 60 ℃, 0 h): 98.91±0.10%
- purity after incubation in DMSO stock solution ([1]; 60 ℃, 2 h): 98.91±0.10%
- purity after incubation in DMSO stock solution ([1]; 60 ℃, 24 h): 98.89±0.17%
- purity after incubation in DMSO stock solution ([1]; 60 ℃, 48 h): 100.00±0.00%
- purity after incubation in DMSO stock solution ([1]; 60 ℃, 72 h): 98.96±0.15%
- purity after incubation in DMSO stock solution ([1]; Room Temperature, 0 h): 99.36±0.06%
- purity after incubation in DMSO stock solution ([1]; Room Temperature, 2 h): 99.11±0.14%
- purity after incubation in DMSO stock solution ([1]; Room Temperature, 24 h): 99.99±0.00%
- purity after incubation in DMSO stock solution ([1]; Room Temperature, 48 h): 99.08±0.02%
- purity after incubation in DMSO stock solution ([1]; Room Temperature, 72 h): 99.57±0.06%
- AUC(0-inf) (In vivo PK study in mice; iv): 227 ng·h/mL
- Cmax (In vivo PK study in mice; iv): 275 ng/mL
- Tmax (In vivo PK study in mice; iv): 4.98 min
- half-life (In vivo PK study in mice; iv): 18 min
- bioavailability (In vivo PK study in mice; oral): 11.7%
- AUC(0-inf) (In vivo PK study in mice; po): 50.2 ng·h/mL
- Cmax (In vivo PK study in mice; po): 6.81 ng/mL
- Tmax (In vivo PK study in mice; po): 60 min
- half-life (In vivo PK study in mice; po): 282 min
